Reference: US6827926B2, “Metallotetrapyrrolic photosensitizing agents for use in photodynamic therapy” (Miravant Pharmaceuticals, Inc., priority 2001, dated 2004)
Read-outs that look alike come from different tables or passages of the source. Each block holds one compound with its values, some of them ahead of it.

Assays:
[1] = tested on: uninjured coronary and iliac arteries; test: Pig artery acute PDT experiments in uninjured arteries (acellularity); type: in vivo; details: 532 nm light, 55 J, 125 J/cm2, 250 mW
Procedure: Those photosensitizers showing excellent efficacy in the rat carotid artery model were evaluated in more detail in the pig coronary artery model (Waksman, R., Rodriguez, J. C., Robinson, K. A., Cipolla, G. D., Crocker, I. R., Scott, N. A. King, S. B., Wilcox, J. N., Circulation, 96, 1944-1952, 1997). If vascular PDT is to be proposed as a therapy to prevent restenosis in humans due to angioplasty or stenting, then it must first be shown to be effective in a large animal model such as the swine. Porcine coronary arteries are very similar to human coronary arteries with regard to size, neointima formation, and thrombosis in response to injury.
Photosensitizers were administered systemically (at doses typically 2-3.5 mg/kg body weight, in a soybean phospholipid formulation) as a slow bolus injection in the ear vein. Drug treatments were followed (1-4 hr later) by endovascular light treatment (50-250 J/cm^2 fluence and 100-300 mW/cm^2 irradiance) in uninjured coronary (50-250 J/cm^2 fluence and 100-300 mW/cm^2 irradiance) and iliac (50-350 J/cm^2 fluence and 100-450 mW/cm^2 irradiance) arteries. In another set of experiments, animals also received balloon injuries in the coronary arteries at the time of PDT treatment. Angioplasty injuries in 2 coronary arteries were performed. Vital signs and cardiovascular parameters such as ECG, HR, BP, were monitored together with arterio-angiograms for measurements of vessel patency.
For acute experiments done in uninjured arteries, 3-5 days after the PDT experiments, animals were sacrificed and serial sections of all relevant arteries (iliacs, & coronaries) were harvested in 10% formalin and processed for histological assessment. Results of PDT at this timepoint give us an insight into the selective cellular effects of PDT on VSMC and myofibroblasts which are known to be maximally proliferating and migrating at this same time in response to a vessel wall injury—such as an angioplasty.
For longer term efficacy experiments (14 days after the PDT experiments) animals were sacrificed and serial sections of all relevant arteries (coronaries only) were harvested in 10% formalin and processed for histological assessment. Representative arterial segments underwent parafin embedding and sectioning for Hemoxylin & Eosin and/or elastin staining. Slides were prepared for microscopy histological analysis of the (i) acute cellular responses and (ii) inhibition of neointima formation following treatment. Once prepared, the slides were analyzed via microscopy for histomorphometry and effects such as medial wall acellularity, arterial wall and surrounding tissue cell death and proliferation. […] The magnitude of the inhibition was greater than any other photosensitizer drug currently used by other groups in PDT (clinically or pre-clinically), and was on the order of that only previously seen with radiation in this model. Inhibition data is averaged over the injury length within the artery.

[2] = tested on: normal skin of CD Hairless male rats; type: in vivo, rat
Outline: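 Liposomal egg yolk phospholipid photosensitizer given as single i.v. tail-vein bolus at 1, 1.5 and 2 μmol/kg; skin spots irradiated with 532 nm laser (150 mW/cm^2, 150J, 1 cm) at 1, 6, 24, 48, 96 hrs post injection. Value is time of last observed skin response spot.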

Normal skin Response (1 μmol) ([2]; rat, in vivo): 6 h
Compound: COC(=O)CCC1=C(C)c2cc3[n-]c(cc4nc(cc5[n-]c(cc1n2)c(CCC(=O)OC)c5C)C=C4C)cc3C.[Cl-].[Ga+3] [Example 4, Gallium Chloride Deuteroporphyrin Dimethyl Ester]
Acellularity (%) (3 days) ([1]; drug dose 1 mg/Kg): 50%
Acellularity (%) (3 days) ([1]; drug dose 2 mg/Kg): 70%
Acellularity (%) (3 days) ([1]; drug dose 3 mg/Kg): 95%

Normal skin Response (1 μmol) ([2]; rat, in vivo): 6 h
Compound: CCC1=C(C)C2=[N+]3C1=Cc1c(C)c(CC)c4[n]1[Ga-2]31([Cl])[n]3c(c(C)c(CCC(=O)NC)c3=CC3=[N+]1C(=C4)C(C)=C3CCC(=O)NC)=C2 [Example 121, Gallium Chloride Mesoporphyrin N-methyl Amide]
Acellularity (%) (3 days) ([1]; drug dose 1 mg/Kg): 45%
Acellularity (%) (3 days) ([1]; drug dose 2 mg/Kg): 75%
Acellularity (%) (3 days) ([1]; drug dose 3 mg/Kg): 95%

Compound: Gallium Chloride Mesoporphyrin Dimethyl Ester [Example 1]
Acellularity (%) (3 days) ([1]; drug dose 1 mg/Kg): 50%
Acellularity (%) (3 days) ([1]; drug dose 2 mg/Kg): 70%
Acellularity (%) (3 days) ([1]; drug dose 3 mg/Kg): 100%
Normal skin Response (1 μmol) ([2]; Table 3, time of last skin spot observed post injection, 1 μmol, 532 nm laser): 48 h
normal skin responses, time post drug injection ([2]; rats, drug dose 1 μmol/Kg): 48 h
